The target of one assay is T1, cPLA2α (Homo sapiens, UniProt P47712).
T1 sequence (P47712 1-749): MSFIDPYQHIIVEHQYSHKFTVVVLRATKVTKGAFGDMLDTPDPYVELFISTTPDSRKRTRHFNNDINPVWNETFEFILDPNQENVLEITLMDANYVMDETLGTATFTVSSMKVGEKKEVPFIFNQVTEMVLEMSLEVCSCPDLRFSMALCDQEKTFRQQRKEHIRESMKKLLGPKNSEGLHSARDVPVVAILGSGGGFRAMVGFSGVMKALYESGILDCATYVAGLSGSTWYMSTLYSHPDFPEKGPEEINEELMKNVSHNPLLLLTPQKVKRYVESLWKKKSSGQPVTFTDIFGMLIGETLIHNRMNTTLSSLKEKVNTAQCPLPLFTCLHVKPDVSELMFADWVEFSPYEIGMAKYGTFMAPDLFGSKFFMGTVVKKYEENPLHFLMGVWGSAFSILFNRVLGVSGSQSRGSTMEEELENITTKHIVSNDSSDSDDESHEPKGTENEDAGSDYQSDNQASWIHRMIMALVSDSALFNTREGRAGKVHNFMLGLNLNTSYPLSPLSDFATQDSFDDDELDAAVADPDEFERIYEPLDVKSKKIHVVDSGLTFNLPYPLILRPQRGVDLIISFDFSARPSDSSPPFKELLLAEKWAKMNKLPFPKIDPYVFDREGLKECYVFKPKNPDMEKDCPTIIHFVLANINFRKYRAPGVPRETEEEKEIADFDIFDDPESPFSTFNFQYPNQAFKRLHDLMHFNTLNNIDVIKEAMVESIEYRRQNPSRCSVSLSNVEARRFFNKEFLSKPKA
The assay is described as follows: GLU Micelle Assay. The assay is classed as biochemical. As to the method: The assay was carried in a 96-well format using a fluorescent plate reader with a 355 nm excitation filter and a 460 nm emission filter (Lab Systems Fluoroscan II, Helsinki, Finland). The assay buffer contained 940 μM Triton X-100, 50 mM Hepes pH 7.4, 0.3 mM EDTA, 1 mM CaCl2 and 300 mM KCl. DTPC (1,2-O-tetradecyl-sn-glycero-3-phosphocholine, Avanti) at a final concentration of 120 μM was added the day of the experiment and GLU (7-Hydroxycoumarinyl-γ-linolenate, Biomol Research Lab, Inc.) at a final concentration of 90 μM was added immediately prior to each assay.
Compounds (10 μL) dissolved in DMSO were placed in duplicate wells of a black 96-well plate. Wells corresponding to the positive and negative controls contained DMSO without inhibitors. Just prior to the experiment, 200 μL assay buffer containing 90 μM GLU and 120 μM DTPC was added to all wells in the assay plate. Assay buffer (50 μL) was added to the negative, and 50 μL cPLA2α solution ([…] in assay buffer) was added to all other wells to initiate the reaction. The final concentration of enzyme was 1 μg/ml. The content of each well was mixed gently during the addition of the enzyme, and the plate was rapidly transferred to the fluorescent plate reader. The increase in fluorescence was read every 4 min for 84 min. The slope of the resulting line was determined and the inhibition was calculated using the equation below: Percent Inhibition=[1−(slope with inhibitor−slope negative control)/(slope positive control−slope negative control)]×100 Rat Whole Blood Assay

The subject of the next assay is TXB2. Description: Rat Whole Blood Assay (A23187-stimulated TXB2). The format is cell-based. The settings on record: A23187 5 μM. As to the method:
Fresh blood was collected in heparinized tubes by cardiac puncture of male Sprague-Dawley rats. Aliquots of blood (0.6 mL) were incubated with either 6 μL solvent (DMSO), or 6 μL of test compounds at various concentrations for 15 minutes at 37° C. This was followed by incubation of the blood with 6 μL of calcium ionophore, A23187 (Sigma C-7522) diluted in DMSO for 10 min at 37° C. The final concentration of A23187 was 5 μM. DMSO (6 μL) was added in the unstimulated controls. The reactions were stopped by mixing 60 μL cold EDTA to give a final concentration of 20 mM. The blood was centrifuged at 6,500 rpm for 10 min on a microcentrifuge to obtain plasma. A 70 μL aliquot of plasma was mixed with 400 μL cold methanol for protein precipitation. After incubation at −80° C. for 30 min, the supernatant was obtained by centrifuging at 6,500 rpm for 10 min, and was assayed for TXB2 according to the manufacturer's procedure (Assay Designs, Inc.'s ELISA kit #900-002).

Take `O=C(O)c1ccc(CCCc2c(CCNS(=O)(=O)Cc3ccccc3-c3cccnc3)n(C(c3ccccc3)c3ccccc3)c3ccc(Cl)cc23)cc1` [Example 31, 4-{3-[5-chloro-1-(diphenylmethyl)-2-(2-{[(2-pyridin-3-ylbenzyl)sulfonyl]amino}ethyl)-1H-indol-3-yl]propyl}benzoic acid]: the IC50 (in general, the concentration that gives 50% inhibition) at cPLA2α was found to be 0.016 µM; in the assay on TXB2 (Rattus norvegicus) it was 0.04 µM.
`O=C(O)c1ccc(CCCc2c(CCNS(=O)(=O)Cc3ccccc3F)n(C(c3ccccc3)c3ccccc3)c3ccc(Cl)cc23)cc1` [Example 28, 4-{3-[5-chloro-1-(diphenylmethyl)-2-(2-{[(2-fluorobenzyl)sulfonyl]amino}ethyl)-1H-indol-3-yl]propyl}benzoic acid]: the IC50 against cPLA2α and with TXB2 (Rattus norvegicus) was 0.03 µM each time.
Consider `O=C(O)c1ccc(CCCc2c(CCNS(=O)(=O)Cc3ccccc3-c3ccsc3)n(C(c3ccccc3)c3ccccc3)c3ccc(Cl)cc23)cc1` [Example 32, 4-(3-{5-chloro-1-(diphenylmethyl)-2-[2-({[2-(3-thienyl)benzyl]sulfonyl}amino)ethyl]-1H-indol-3-yl}propyl)benzoic acid], for which the results for the IC50 against cPLA2α and with TXB2 (Rattus norvegicus) were 0.013 µM and 0.05 µM, respectively.
Take `CC(c1ccccc1C(F)(F)F)S(=O)(=O)NCCc1c(CCS(=O)(=O)c2ccc(CCC(=O)O)cc2)c2cc(Cl)ccc2n1C(c1ccccc1)c1ccccc1` (stereo not drawn) [Example 39, 3-(4-{[2-(5-chloro-1-(diphenylmethyl)-2-{2-[({1-[2-(trifluoromethyl)phenyl]ethyl}sulfonyl)amino]ethyl}-1H-indol-3-yl)ethyl]sulfonyl}phenyl)propanoic acid]: the half-inhibitory concentration (IC50) on cPLA2α was 0.068 µM; in the assay with TXB2 (Rattus norvegicus), 0.02 µM.
Consider `O=C(O)c1ccc(CCCc2c(CCNS(=O)(=O)Cc3c(Cl)cccc3Cl)n(C(c3ccccc3)c3ccccc3)c3ccc(Cl)cc23)cc1` [Example 8, 4-{3-[5-chloro-2-(2-{[(2,6-dichlorobenzyl)sulfonyl]amino}ethyl)-1-(diphenylmethyl)-1H-indol-3-yl]propyl}benzoic acid], for which the IC50 against cPLA2α came to 0.024 µM; in the assay on TXB2 (Rattus norvegicus), 0.02 µM.
`O=C(O)c1ccc(OCCc2c(CCNS(=O)(=O)Cc3c(F)cccc3C(F)(F)F)n(C(c3ccccc3)c3ccccc3)c3ccc(Cl)cc23)cc1` [Example 6, 4-(2-{5-chloro-1-(diphenylmethyl)-2-[2-({[2-fluoro-6-(trifluoromethyl)benzyl]sulfonyl}amino)ethyl]-1H-indol-3-yl}ethoxy)benzoic acid]: the figures for the IC50 against cPLA2α and with TXB2 (Rattus norvegicus) were 0.092 µM and 0.08 µM, respectively.
Taken in the same sequence, the figures for `O=C(O)c1ccc(OCCc2c(CCNS(=O)(=O)Cc3ccccc3C(F)(F)F)n(C(c3ccccc3)c3ccccc3)c3ccc(Cl)cc23)cc1` [Example 5, 4-(2-{5-chloro-1-(diphenylmethyl)-2-[2-({[2-(trifluoromethyl)benzyl]sulfonyl}amino)ethyl]-1H-indol-3-yl}ethoxy)benzoic acid] were 0.026 µM and 0.02 µM.
Taken in the same sequence, the figures for `O=C(O)c1ccc(OCCc2c(CCNS(=O)(=O)Cc3ccccc3O)n(C(c3ccccc3)c3ccccc3)c3ccc(Cl)cc23)cc1` [Example 2, 4-{2-[5-chloro-1-(diphenylmethyl)-2-(2-{[(2-hydroxybenzyl)sulfonyl]amino}ethyl)-1H-indol-3-yl]ethoxy}benzoic acid] were 0.19 µM and 0.12 µM.
Take `O=C(O)c1ccc(CCCc2c(CCNS(=O)(=O)Cc3ccccc3CO)n(C(c3ccccc3)c3ccccc3)c3ccc(Cl)cc23)cc1` [Example 19, 4-(3-{5-chloro-1-(diphenylmethyl)-2-[2-({[2-(hydroxymethyl)benzyl]sulfonyl}amino)ethyl]-1H-indol-3-yl}propyl)benzoic acid]: the half-maximal inhibitory concentration (IC50) amounted to 0.022 µM against cPLA2α and 0.03 µM in the assay with TXB2 (Rattus norvegicus).
Consider `O=C(O)c1ccc(CCCc2c(CCNS(=O)(=O)Cc3c([N+](=O)[O-])cccc3C(F)(F)F)n(C(c3ccccc3)c3ccccc3)c3ccc(Cl)cc23)cc1` [Example 27, 4-(3-{5-chloro-1-(diphenylmethyl)-2-[2-({[2-nitro-6-(trifluoromethyl)benzyl]sulfonyl}amino)ethyl]-1H-indol-3-yl}propyl)benzoic acid], for which the IC50 was 0.038 µM on cPLA2α and 0.03 µM in the assay on TXB2 (Rattus norvegicus).
Turning to `CCN(CC)Cc1ccccc1CS(=O)(=O)NCCc1c(CCCc2ccc(C(=O)O)cc2)c2cc(Cl)ccc2n1C(c1ccccc1)c1ccccc1` [Example 18, 4-{3-[5-chloro-2-{2-[({2-[(diethylamino)methyl]benzyl}sulfonyl)amino]ethyl}-1-(diphenylmethyl)-1H-indol-3-yl]propyl}benzoic acid], the IC50 against cPLA2α worked out at 0.025 µM; with TXB2 (Rattus norvegicus) it was 0.04 µM.
Turning to `O=C(O)c1ccc(CCCc2c(CCNS(=O)(=O)Cc3ccccc3CN3CCOCC3)n(C(c3ccccc3)c3ccccc3)c3ccc(Cl)cc23)cc1` [Example 17, 4-(3-{5-chloro-1-(diphenylmethyl)-2-[2-({[2-(morpholin-4-ylmethyl)benzyl]sulfonyl}amino)ethyl]-1H-indol-3-yl}propyl)benzoic acid], the IC50 amounted to 0.01 µM against cPLA2α and 0.02 µM with TXB2 (Rattus norvegicus).
Turning to `Cc1cccc([N+](=O)[O-])c1CS(=O)(=O)NCCc1c(CCCc2ccc(C(=O)O)cc2)c2cc(Cl)ccc2n1C(c1ccccc1)c1ccccc1` [Example 9], the IC50 against cPLA2α came to 0.022 µM; in the assay with TXB2 it was 0.02 µM.
As to `O=C(O)c1ccc(OCCc2c(CCNS(=O)(=O)Cc3c(Br)cccc3Br)n(C(c3ccccc3)c3ccccc3)c3ccc(Cl)cc23)cc1` [Example 3, 4-{2-[5-chloro-2-(2-{[(2,6-dibromobenzyl)sulfonyl]amino}ethyl)-1-(diphenylmethyl)-1H-indol-3-yl]ethoxy}benzoic acid], the IC50 on cPLA2α worked out at 0.054 µM; in the assay on TXB2 (Rattus norvegicus), 0.06 µM.
On to `Cc1c(Cl)ccc(F)c1CS(=O)(=O)NCCc1c(CCCc2ccc(C(=O)O)cc2)c2cc(Cl)ccc2n1C(c1ccccc1)c1ccccc1` [Example 26], for which the IC50 against cPLA2α worked out at 0.022 µM; in the assay with TXB2, 0.03 µM.
Take `O=C(O)c1ccc(CCCc2c(CCNS(=O)(=O)Cc3ccccc3-c3ccccc3)n(C(c3ccccc3)c3ccccc3)c3ccc(Cl)cc23)cc1` [Example 29, 4-{3-[2-(2-{[(biphenyl-2-ylmethyl)sulfonyl]amino}ethyl)-5-chloro-1-(diphenylmethyl)-1H-indol-3-yl]propyl}benzoic acid]: the half-maximal inhibitory concentration (IC50) at cPLA2α turned out to be 0.018 µM; in the assay with TXB2 (Rattus norvegicus), 0.05 µM.
For the molecule `O=C(O)CCc1ccc(S(=O)(=O)CCc2c(CCNS(=O)(=O)Cc3ccccc3C(F)(F)F)n(C(c3ccccc3)c3ccccc3)c3ccc(Cl)cc23)cc1` [Example 38, 3-{4-[(2-{5-chloro-1-(diphenylmethyl)-2-[2-({[2-(trifluoromethyl)benzyl]sulfonyl}amino)ethyl]-1H-indol-3-yl}ethyl)sulfonyl]phenyl}propanoic acid], the figures for the IC50 at cPLA2α and with TXB2 (Rattus norvegicus) were 0.007 µM and 0.01 µM, respectively.
The matching figures for `O=C(O)c1ccc(CCCc2c(CCNS(=O)(=O)Cc3ccccc3-c3ccncc3)n(C(c3ccccc3)c3ccccc3)c3ccc(Cl)cc23)cc1` [Example 30, 4-{3-[5-chloro-1-(diphenylmethyl)-2-(2-{[(2-pyridin-4-ylbenzyl)sulfonyl]amino}ethyl)-1H-indol-3-yl]propyl}benzoic acid]: 0.021 µM and 0.06 µM.

The record behind these values is patent US8283373B2, “Inhibitors of cytosolic phospholipase A2” (Pfizer Inc., priority 2005, dated 2012).
